Test results taken from patent publication US20230165867A1 (CHENGDU BAIYU PHARMACEUTICAL CO., LTD., priority 2020, published 2023).
Where two headings read alike, the source gives them in different places.

Legend:
[1] = Metabolic stability in liver microsomes; type: in vitro ADME, human; conditions: 0.5 µM test substance, 0.5 mg/mL microsomes, NADPH and UDPGA, 37° C.; for half-life at 0.5 µM: human, human liver microsomes, read-out: T½(min), stability in human liver microsomes
Protocol: Liver microsomes (purchased from Reed Liver Disease Research (Shanghai) Co., Ltd., product: human liver microsomes (NJT)); NADPH (purchased from Roche, Lot: 40939); UDPGA; the compounds of the present invention (test substances).
• (1) A mixed working solution of testosterone (0.5 µM) and 7-hydroxycoumarin (0.5 µM) was prepared. • (2) A mixed solution of NADPH (1 mM) and UDPGA (1 mM) was prepared, and prewarmed at 37° C. in a water bath shaker before use. • (3) Liver microsomes were thawed and diluted with a buffer. • (4) A preparation of a test substance (0.5 µM) and a solution of liver microsomes (0.5 mg/mL) were added to each well of an incubation plate. • (5) Three experimental groups were set and samples were added. Test group: the test substance was incubated with liver microsomes for 0 min, 30 min, 60 min, and 120 min in the presence of the coenzyme NADPH and UDPGA; Positive control group: testosterone (0.5 µM) and 7-hydroxycoumarin (0.5 µM) were incubated with microsomes for 0 min and 120 min in the presence of the coenzyme NADPH and UDPGA; Negative control group: the test substance was incubated with microsomes for 0 and 120 min without any coenzyme. • (6) All samples were incubated at 37° C., and pre-cooled methanol was added at each termination time (0, 15, 30, 45, 60 min, 120 min) to terminate the reaction, and the time was recorded. • (7) All samples were mixed well and centrifuged at 4000 rpm for 10 min. The supernatant was taken and measured by LC-MS/MS for the amount of the test substance remaining in the samples. Data analysis was carried out as follows: T½=0.693 /k, Clint = (0.693/T½) × (1 /(microsomal protein) × Scaling Factors), Note: k is the slope of the logarithm of the remaining amounts of compound versus time.

[2] = target: T1, DNA-PK kinase (Homo sapiens, UniProt P78527); experiment: Inhibition assay of DNA-PK kinase (Promega kit, ADP-Glo chemiluminescence); type: biochemical; conditions: 50 µM ATP, 37° C., 60 min; read-out: IC50 (nM), inhibitory activity on DNA-PK kinase
T1 construct: purchased Promega V4107
Protocol: The inhibitory activity of the compounds on DNA-PK kinase was measured by using a DNA-PK kinase assay kit (purchased from Promega, Cat.#: V4107, Lot: 0000366495). The results were quantified by chemiluminescence, and the detailed experimental protocol was as follows: • i. An ADP-fluorescence standard curve over a range of concentrations was plotted according to the kit instructions; • ii. […] The mixtures were mixed well, centrifuged (1000 rpm, 30 s), and incubated at 37° C. for 60 min; • iv. 5 µL of ADP-Glo™ Reagent was added to stop the reaction, which was then mixed well, centrifuged (1000 rpm, 30 s), and incubated at room temperature for 40 min; • v. 10 µL Kinase Detection Reagent was added, and the mixture was mixed well by shaking, centrifuged (1000 rpm, 30 s), and incubated at room temperature for 30 min; • vi. The […] was measured by using a microplate reader (Thermo fisher, Varioskan LUX).

[3] = Pharmacokinetic assay in ICR mice (i.v. and p.o.); type: in vivo; conditions: mouse, plasma, male ICR mice; for half-life: read-out: T½ (converted); for bioavailability: po 10 mg/kg vs iv 1 mg/kg
Protocol: ICR mice were purchased from Beijing Vital River Laboratory Animal Technology Co., Ltd.
3.2 Experimental procedure • (1) Healthy male ICR mice (18-22 g) were prepared, with 18 mice for each compound. The mice were divided into 2 groups (an i.v. group and a p.o. group), with 9 mice per group. 3 mice were picked for blood collection at each time point. • (2) After the animals were fasted overnight (with free access to water), the compound of the present invention dissolved (or suspended) in a solvent of 5% DMSO and 95% 30% HP-β-CD (v:v) was administered via the tail vein (i.v., 1 mg/kg) or intragastrically (p.o., 10 mg/kg), respectively. • (3) For the i.v. group, 0.1 mL blood was collected from the submandibular vein 5 min, 15 min, 0.5 h, 1 h, 2 h, 4 h, 8 h, 12 h, and 24 h after administration, respectively, anticoagulated with EDTA-K2, and centrifuged at 4° C. for 5 min to obtain plasma, which was stored at -20° C. until testing. (4) For the p.o. group, 0.1 mL blood was collected from the submandibular vein before administration and 15 min, 0.5 h, 1 h, 2 h, 4 h, 6 h, 8 h, 12 h, and 24 h after administration, and treated in the same manner as that for the intravenous group. • (5) The concentration of the compound of the present invention in plasma was measured by LC/MS/MS. • (6) Calculation and fitting were performed with Analyst 1.6 from AB Company, and the results are shown in Table 3.

In the case of `[2H]C([2H])([2H])c1cc(C#N)ccc1Nc1ncc2c(n1)n(C1CCOCC1)c(=O)n2C` (single isomer, unassigned) [Compound 25, 3-(Methyl-d3)-4-((7-methyl-8-oxo-9-(tetrahydro-2H-pyran-4-yl)-8,9-dihydro-7H-purin-2-yl)amino)benzonitrile], the half-life at 0.5 µM [1] is reported as > 120 min.

For `Cc1cc(C(N)=O)c(F)cc1Nc1ncc2c(n1)n(C1CCC(C)(C#N)CC1)c(=O)n2C` (single isomer, unassigned) [Compound 92-1, 4-((9-(4-cyano-4-methylcyclohexyl)-7-methyl-8-oxo-8,9-dihydro-7H-purin-2-yl)amino)-2-fluoro-5-methylbenzamide], the half-life at 0.5 µM [1] was > 120 min.

In the case of `Cc1cc(C(N)=O)c(F)cc1Nc1ncc2c(n1)n(C1CCC(C)(C#N)CC1)c(=O)n2C` (single isomer, unassigned) [Compound 92-2, 4-((9-(4-cyano-4-methylcyclohexyl)-7-methyl-8-oxo-8,9-dihydro-7H-purin-2-yl)amino)-2-fluoro-5-methylbenzamide], the “T½(min), stability in human liver microsomes” value [1] is reported as >120 min.

In the case of `Cc1cc(C#N)c(F)cc1Nc1ncc2c(n1)n(C1CCOCC1)c(=O)n2C` [Compound 8, 2-Fluoro-5-methyl-4-((7-methyl-8-oxo-9-(tetrahydro-2H-pyran-4-yl)-8,9-dihydro-7H-purin-2-yl)amino)benzonitrile], the half-life at 0.5 µM [1] is reported as > 120 min and the IC50 [2] is reported as 11.7 nM.

In the case of `COc1cc(C)c(Nc2ncc3c(n2)n(C2CCOCC2)c(=O)n3C)cn1` [Compound 9, 2-((6-methoxy-4-methylpyridin-3-yl)amino)-7-methyl-9-(tetrahydro-2H-pyran-4-yl)-7,9-dihydro-8H-purin-8-one], the half-life at 0.5 µM [1] is reported as > 120 min, the IC50 [2] is reported as 0.47 nM and the AUC ([3]; iv, 1 mg/kg) is reported as 323 ng·h/mL. The half-life ([3]; iv, 1 mg/kg) was 24.6 min, the bioavailability [3] was 51.4% and the AUC ([3]; po, 10 mg/kg) was 1660 ng·h/mL. The Cmax ([3]; po, 10 mg/kg) was 1490 ng/mL and the half-life ([3]; po, 10 mg/kg) was 80.4 min.

With `[2H]C([2H])([2H])NC(=O)c1cc(C)c(Nc2ncc3c(n2)n(C2CCOCC2)c(=O)n3C)cn1` [Compound 39, 4-Methyl-N-(methyl-d3)-5-((7-methyl-8-oxo-9-(tetrahydro-2H-pyran-4-yl)-8,9-dihydro-7H-purin-2-yl)amino)picolinamide] the half-life at 0.5 µM [1] was > 120 min and the IC50 [2] was 5.7 nM.

In the case of `[2H]C([2H])([2H])c1cc(C(N)=O)c(F)cc1Nc1ncc2c(n1)n(C1CCOCC1)c(=O)n2C` [Compound 44, 2-Fluoro-5-(methyl-d3)-4-((7-methyl-8-oxo-9-(tetrahydro-2H-pyran-4-yl)-8,9-dihydro-7H-purin-2-yl)amino)benzamide], the half-life at 0.5 µM [1] is reported as > 120 min and the IC50 [2] is reported as 1.1 nM.

For `Cc1cc(C(N)=O)c(C(F)(F)F)cc1Nc1ncc2c(n1)n(C1CCOCC1)c(=O)n2C` [Compound 48, 5-Methyl-4-((7-methyl-8-oxo-9-(tetrahydro-2H-pyran-4-yl)-8,9-dihydro-7H-purin-2-yl)amino)-2-(trifluoromethyl)benzamide], the half-life at 0.5 µM [1] was > 120 min and the IC50 [2] was 1.96 nM.

In the case of `CCOc1cc(Nc2ncc3c(n2)n(C2CCOCC2)c(=O)n3C)c(C)cc1C(N)=O` [Compound 53, 2-Ethoxy-5-methyl-4-((7-methyl-8-oxo-9-(tetrahydro-2H-pyran-4-yl)-8,9-dihydro-7H-purin-2-yl)amino)benzamide], the half-life at 0.5 µM [1] is reported as > 120 min and the IC50 [2] is reported as 0.32 nM.

For `COc1cc(Nc2ncc3c(n2)n(C2CCOCC2)c(=O)n3C)c(C)cc1C(N)=O` [Compound 57, 2-Methoxy-5-methyl-4-((7-methyl-8-oxo-9-(tetrahydro-2H-pyran-4-yl)-8,9-dihydro-7H-purin-2-yl)amino)benzamide], the half-life at 0.5 µM [1] was > 120 min and the IC50 [2] was 3.98 nM.

For `Cc1cc(C(N)=O)c(F)cc1Nc1ncc2c(n1)n(C1CCCOC1)c(=O)n2C` (stereo not shown) [Compound 69, 2-fluoro-5-methyl-4-((7-methyl-8-oxo-9-(tetrahydro-2H-pyran-3-yl)-8,9-dihydro-7H-purin-2-yl)amino)benzamide], the half-life at 0.5 µM [1] was > 120 min and the IC50 [2] was 1.25 nM.

In the case of `Cc1cc(C(N)=O)c(F)cc1Nc1ncc2c(n1)n([C@H]1CC[C@@](C)(O)CC1)c(=O)n2C` [Compound 72, 2-Fluoro-4-((9-(cis-4-hydroxy-4-methylcyclohexyl)-7-methyl-8-oxo-8,9-dihydro-7H-purin-2-yl)amino)-5-methylbenzamide], the half-life at 0.5 µM [1] is reported as > 120 min, the AUC ([3]; iv, 1 mg/kg) is reported as 1700 ng·h/mL and the half-life ([3]; iv, 1 mg/kg) is reported as 175 min. For the same molecule, the bioavailability [3] was 166%, the AUC ([3]; po, 10 mg/kg) was 28200 ng·h/mL and the Cmax ([3]; po, 10 mg/kg) was 4680 ng/mL. The half-life ([3]; po, 10 mg/kg) was 155 min.

For `Cc1cc(C(N)=O)c(F)cc1Nc1ncc2c(n1)n([C@H]1CC[C@](C)(O)CC1)c(=O)n2C` [Compound 73, 2-Fluoro-4-((9-(trans-4-hydroxy-4-methylcyclohexyl)-7-methyl-8-oxo-8,9-dihydro-7H-purin-2-yl)amino)-5-methylbenzamide], the half-life at 0.5 µM [1] was > 120 min, the AUC ([3]; iv, 1 mg/kg) was 239 ng·h/mL and the half-life ([3]; iv, 1 mg/kg) was 74.4 min. It also gave a bioavailability [3] of 56%, an AUC ([3]; po, 10 mg/kg) of 1270 ng·h/mL and a Cmax ([3]; po, 10 mg/kg) of 484 ng/mL. The half-life ([3]; po, 10 mg/kg) was 150 min.

In the case of `Cc1cc(C(N)=O)c(F)cc1Nc1ncc2c(n1)n(C1CCNCC1)c(=O)n2C` [Compound 81, 2-Fluoro-5-methyl-4-((7-methyl-8-oxo-9-(piperidin-4-yl)-8,9-dihydro-7H-purin-2-yl)amino)benzamide], the half-life at 0.5 µM [1] is reported as > 120 min and the IC50 [2] is reported as 47.1 nM.

In the case of `Cc1cc(C(N)=O)c(F)cc1Nc1ncc2c(n1)n(C1CCN(C)CC1)c(=O)n2C` [Compound 82, 2-Fluoro-5-methyl-4-((7-methyl-9-(1-methylpiperidin-4-yl)-8-oxo-8,9-dihydro-7H-purin-2-yl)amino)benzamide], the half-life at 0.5 µM [1] is reported as > 120 min and the IC50 [2] is reported as 24.5 nM.

In the case of `Cc1cc(C(N)=O)c(F)cc1Nc1ncc2c(n1)n(C1CCC(F)(F)CC1)c(=O)n2C` [Compound 83, 4-((9-(4,4-difluorocyclohexyl)-7-methyl-8-oxo-8,9-dihydro-7H-purin-2-yl)amino)-2-fluoro-5-methylbenzamide], the half-life at 0.5 µM [1] is reported as > 120 min and the IC50 [2] is reported as 0.43 nM.

With `Cc1cc(C(N)=O)c(F)cc1Nc1ncc2c(n1)n(C1CC3CCC(C1)O3)c(=O)n2C` (stereo not shown) [Compound 85, 4-((9-(8-oxabicyclo[3.2.1]octan-3-yl)-7-methyl-8-oxo-8,9-dihydro-7H-purin-2-yl)amino)-2-fluoro-5-methylbenzamide] the half-life at 0.5 µM [1] was > 120 min and the IC50 [2] was 1.1 nM.

With `Cc1cc(C(N)=O)c(F)cc1Nc1ncc2c(n1)n([C@H]1C[C@H](O)C1)c(=O)n2C` [Compound 93, 2-Fluoro-4-((9-(trans-3-hydroxycyclobutyl)-7-methyl-8-oxo-8,9-dihydro-7H-purin-2-yl)amino)-5-methylbenzamide] the half-life at 0.5 µM [1] was > 120 min and the IC50 [2] was 0.75 nM.
